# Experimental data taken from patent US20240139144A1, “COPPER CHELATOR, ANTICANCER AGENT AND PROPHYLACTIC OR THERAPEUTIC AGENT FOR WILSON'S DISEASE” (Murata Manufacturing Co., Ltd., priority 2021, published 2024).
# Tests used:
# [1] = Evaluation of copper chelating action by LC-MS after addition of CuCl2; assay type: binding; details: for copper chelating action: 10 mM compound in methanol, aqueous CuCl2 added to final 100 mM, shaken at 30° C. for 60 minutes, LC-MS; for peak of the ion of the compound (free compound) in the sample in which a copper ion was added / peak of the ion of the complex of the compound and a copper ion in the sample in which a copper ion was added: LC-MS positive mode, CuCl2 100 mM, 30° C., 60 minutes; for peak of the ion of the compound (free compound) in the sample in which a copper ion was added: m/z 379.00 for (1a), m/z 397.00 for (2a); for peak of the ion of the complex of the compound and a copper ion in the sample in which a copper ion was added: m/z 441.00 for (1a), m/z 459.00 for (2a)
# Experimental: (Method for Evaluating Copper Chelating Action)
# An aqueous CuCl2 solution was added to a methanol solution of 10 mM compound (1a) or 10 mM compound (2a) so as to have a final concentration of 100 mM, and the mixture was shaken at 30° C. for 60 minutes, and then analyzed by LC-MS. A methanol solution of 10 mM compound (la) or 10 mM compound (2a) to which an aqueous CuCl2 solution was not added was also analyzed by LC-MS.
# (LC-MS measurement conditions)
# Pure water to which 0.1% formic acid was added was used as a solvent A, and acetonitrile was used as a solvent B. The samples were separated on a reversed-phase column (Cosmosil 5.0C 18-MS-II 2.0×100 mm (manufactured by Nacalai Tesque, Inc.)). At this time, the flow rate was set to 0.2 ml/min, and elution was performed in a gradient mode in which the proportion of the solvent B was set to 2% until 2 minutes, and then changed from 2 to 98% from 2 to 15 minutes. The eluted sample was ionized by electrospray ionization method in a positive mode.
# gram-positive bacteria = details: against gram-positive bacteria; cited from earlier work
# Candida albicans = details: against Candida albicans; cited from earlier work
Compound,copper chelating action [1],peak of the ion of the compound (free compound) in the sample in which a copper ion was added [1],peak of the ion of the complex of the compound and a copper ion in the sample in which a copper ion was added [1],copper chelating action compared between compounds ([1]; comparison between FIGS. 1 and 2 and FIGS. 4 and 5),antimicrobial activity (gram-positive bacteria),antimicrobial activity (Candida albicans)
[C-]#[N+][C@@H](Cc1ccc(O)c(-c2cc(C[C@H]([N+]#[C-])C(N)=O)ccc2O)c1)C(N)=O [compound (1a)],has a copper chelating action,not observed,observed,stronger than that of the compound (2a),–,–
[C-]#[N+][C@@H](Cc1ccc(O)c(-c2cc(C[C@H](NC=O)C(N)=O)ccc2O)c1)C(N)=O [compound (2a)],has a copper chelating action,small,observed,–,–,–
hazimycin A,–,–,–,–,antimicrobial activity,antimicrobial activity
